Data as given in paper PMC6917776, “Discovery of a chemical probe for PRDM9” (Nature Communications, 2019).
Read-outs that look alike come from different tables or passages of the source.

How the values were obtained:
Test in all cases: Methyltransferase selectivity assay (SPA)
Type in all cases: biochemical
PRMT7 = biological target: T1, PRMT7 (Homo sapiens, UniProt Q9NVM4)
T1 construct: purchased Structural Genomics Consortium (SGC Toronto) in-house methyltransferase panel
T1 sequence (Q9NVM4 1-692): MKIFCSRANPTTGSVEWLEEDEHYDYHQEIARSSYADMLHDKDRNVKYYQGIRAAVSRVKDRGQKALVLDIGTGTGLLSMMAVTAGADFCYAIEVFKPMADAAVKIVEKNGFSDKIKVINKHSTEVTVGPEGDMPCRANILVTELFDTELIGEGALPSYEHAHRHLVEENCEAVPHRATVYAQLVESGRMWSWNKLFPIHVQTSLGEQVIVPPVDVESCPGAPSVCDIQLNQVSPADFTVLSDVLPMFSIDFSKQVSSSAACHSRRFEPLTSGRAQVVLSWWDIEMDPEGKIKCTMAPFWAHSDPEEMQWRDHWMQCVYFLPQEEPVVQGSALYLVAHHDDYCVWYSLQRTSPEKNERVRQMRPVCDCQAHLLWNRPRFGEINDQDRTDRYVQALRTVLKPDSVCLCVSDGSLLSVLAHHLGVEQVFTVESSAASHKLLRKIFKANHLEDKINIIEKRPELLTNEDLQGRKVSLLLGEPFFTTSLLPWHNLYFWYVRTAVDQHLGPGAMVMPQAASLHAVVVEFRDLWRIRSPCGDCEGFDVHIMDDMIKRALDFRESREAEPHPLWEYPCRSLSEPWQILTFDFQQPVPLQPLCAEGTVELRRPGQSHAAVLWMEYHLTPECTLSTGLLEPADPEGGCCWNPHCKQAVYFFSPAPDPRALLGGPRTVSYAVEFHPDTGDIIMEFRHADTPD
Method: (§1) Selectivity against methyltransferases were determined as described previously. Details of the assays are described in the supplementary methods.
(§2) Methyltransferase selectivity assay1
(§3) The effect of chemical probes and negative controls on the methyltransferase activities of protein, DNA and RNA methyltransferases was tested by radiometric assays using 3H-SAM. For proteins such as MLL1 trimeric, MLL3 pentameric, EZH1 (PRC2) pentameric, and EZH2 (PRC2) trimeric complexes, as well as G9a, GLP, SUV39H1, SUV39H2, SUV420H1, SUV420H2, SETD2, SETD8, SETDB1, SETD7, PRMT1, PRMT3, PRMT4, PRMT5/ MEP50 complex, PRMT6, PRMT7, PRMT8, PRMT9, PRDM9, SMYD2, SMYD3, DNMT1, and BCDIN3D the incorporation of a tritium-labeled methyl group into biotinylated substrate was monitored using scintillation proximity assay (SPA). Briefly, a 10 µL reaction containing 3H-SAM and substrate at concentrations close to the apparent Km values for each enzyme (balanced conditions) was prepared. The reactions were quenched with 10 µL of 7.5 M guanidine hydrochloride; 180 µL of 20 mM Tris buffer (pH 8.0) were added, and the mixture was transferred to a 96-well FlashPlate and incubated for 1 h. The counts per minute (CPM) was measured on a TopCount plate reader. The CPM in the absence of compound or enzyme was defined as 100% activity and background (0%), respectively, for each dataset. […]

MLL1 trimeric complex = biological target: T2, MLL1 trimeric complex (Homo sapiens, UniProt Q03164)
T2 construct: purchased Structural Genomics Consortium (SGC Toronto) in-house methyltransferase panel
Method: as §1, §2, §3

SUV39H1 = biological target: T3, SUV39H1 (Homo sapiens, UniProt O43463)
T3 construct: purchased Structural Genomics Consortium (SGC Toronto) in-house methyltransferase panel
T3 sequence (O43463 1-412): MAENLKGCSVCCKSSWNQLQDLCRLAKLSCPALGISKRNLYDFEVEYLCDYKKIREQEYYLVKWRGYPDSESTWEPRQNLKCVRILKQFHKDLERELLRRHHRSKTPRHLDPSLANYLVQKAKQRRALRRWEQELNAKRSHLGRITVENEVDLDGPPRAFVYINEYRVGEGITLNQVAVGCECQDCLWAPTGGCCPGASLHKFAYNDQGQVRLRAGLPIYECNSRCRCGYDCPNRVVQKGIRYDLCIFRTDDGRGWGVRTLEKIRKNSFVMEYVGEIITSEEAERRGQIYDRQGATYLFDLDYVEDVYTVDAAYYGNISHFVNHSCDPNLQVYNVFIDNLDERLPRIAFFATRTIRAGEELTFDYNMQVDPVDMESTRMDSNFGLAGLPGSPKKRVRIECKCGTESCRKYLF
Method: as §1, §2, §3

SETD2 = biological target: T4, SETD2 (Homo sapiens, UniProt Q9BYW2)
T4 construct: purchased Structural Genomics Consortium (SGC Toronto) in-house methyltransferase panel
Method: as §1, §2, §3

SETDB1 = biological target: T5, SETDB1 (Homo sapiens, UniProt Q15047)
T5 construct: purchased Structural Genomics Consortium (SGC Toronto) in-house methyltransferase panel
Method: as §1, §2, §3

PRMT1 = biological target: T6, PRMT1 (Homo sapiens, UniProt Q99873)
T6 construct: purchased Structural Genomics Consortium (SGC Toronto) in-house methyltransferase panel
Method: as §1, §2, §3

SETD8 = biological target: T7, SETD8 (Homo sapiens, UniProt Q9NQR1)
T7 construct: purchased Structural Genomics Consortium (SGC Toronto) in-house methyltransferase panel
T7 sequence (Q9NQR1 1-393): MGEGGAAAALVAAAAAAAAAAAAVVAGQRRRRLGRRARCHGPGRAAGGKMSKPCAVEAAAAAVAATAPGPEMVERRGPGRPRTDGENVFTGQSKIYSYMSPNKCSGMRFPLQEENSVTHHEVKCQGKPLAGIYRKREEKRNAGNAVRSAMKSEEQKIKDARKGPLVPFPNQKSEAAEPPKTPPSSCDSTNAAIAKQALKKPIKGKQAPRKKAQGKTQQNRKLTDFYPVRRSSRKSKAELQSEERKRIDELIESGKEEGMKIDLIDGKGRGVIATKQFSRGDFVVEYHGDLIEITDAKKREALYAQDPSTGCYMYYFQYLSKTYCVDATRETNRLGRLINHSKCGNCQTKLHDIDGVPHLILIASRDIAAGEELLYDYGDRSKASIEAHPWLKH
Method: as §1, §2, §3

PRMT8 = biological target: T8, PRMT8 (Homo sapiens, UniProt Q9NR22); conditions: for activity at 1 µM / Activity %: 1µM compound; for Activity %: Exp1, Exp2, 1 µM; for activity at 10 µM: 10µM compound
T8 construct: purchased Structural Genomics Consortium (SGC Toronto) in-house methyltransferase panel
Method: as §1, §2, §3

[1] = biological target: T9, EZH2 (PRC2) trimeric complex (Homo sapiens, UniProt Q15910)
T9 construct: purchased Structural Genomics Consortium (SGC Toronto) in-house methyltransferase panel
Method: as §1, §2, §3

[2] = 10µM compound, Exp1, Exp2, 10 µM
[3] = 1µM compound, Exp1, Exp2, read-out: Activity %
[4] = 10µM compound, Exp1, Exp2, read-out: Activity %
[5] = Exp1, Exp2, read-out: Activity %

T9 sequence (Q15910 whole entry): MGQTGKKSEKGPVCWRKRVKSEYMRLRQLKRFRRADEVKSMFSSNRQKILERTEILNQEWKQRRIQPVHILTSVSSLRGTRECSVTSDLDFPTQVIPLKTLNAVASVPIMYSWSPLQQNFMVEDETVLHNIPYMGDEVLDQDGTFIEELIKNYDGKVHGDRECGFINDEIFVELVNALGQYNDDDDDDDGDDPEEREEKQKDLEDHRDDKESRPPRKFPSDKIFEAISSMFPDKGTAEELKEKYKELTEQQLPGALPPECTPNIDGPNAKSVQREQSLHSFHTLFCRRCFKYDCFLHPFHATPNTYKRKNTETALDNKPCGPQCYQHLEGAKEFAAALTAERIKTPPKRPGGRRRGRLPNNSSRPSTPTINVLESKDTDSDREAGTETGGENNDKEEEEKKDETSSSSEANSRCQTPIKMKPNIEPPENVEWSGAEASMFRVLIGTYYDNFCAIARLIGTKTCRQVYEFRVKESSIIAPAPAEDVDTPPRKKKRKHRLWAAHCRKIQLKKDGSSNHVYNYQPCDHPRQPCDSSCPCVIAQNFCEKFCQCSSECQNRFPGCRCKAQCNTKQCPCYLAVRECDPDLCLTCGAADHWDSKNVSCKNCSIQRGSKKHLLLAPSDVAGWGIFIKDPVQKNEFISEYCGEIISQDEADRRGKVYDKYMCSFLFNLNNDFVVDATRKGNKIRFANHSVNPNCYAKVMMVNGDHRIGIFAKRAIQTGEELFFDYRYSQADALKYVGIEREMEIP
T9 sequence (O75530 whole entry partner): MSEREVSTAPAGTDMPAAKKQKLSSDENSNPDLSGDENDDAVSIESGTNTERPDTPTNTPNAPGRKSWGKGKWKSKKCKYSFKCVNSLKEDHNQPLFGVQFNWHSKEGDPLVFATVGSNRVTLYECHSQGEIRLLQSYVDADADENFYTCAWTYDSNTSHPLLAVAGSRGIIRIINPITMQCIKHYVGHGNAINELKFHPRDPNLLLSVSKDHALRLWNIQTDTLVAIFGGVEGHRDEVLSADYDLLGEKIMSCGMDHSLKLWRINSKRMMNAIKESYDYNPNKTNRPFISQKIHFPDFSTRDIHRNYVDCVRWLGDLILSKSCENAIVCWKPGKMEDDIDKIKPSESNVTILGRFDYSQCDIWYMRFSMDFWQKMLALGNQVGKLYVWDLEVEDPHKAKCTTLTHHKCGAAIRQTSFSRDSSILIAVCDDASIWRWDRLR
T9 sequence (Q15022 whole entry partner): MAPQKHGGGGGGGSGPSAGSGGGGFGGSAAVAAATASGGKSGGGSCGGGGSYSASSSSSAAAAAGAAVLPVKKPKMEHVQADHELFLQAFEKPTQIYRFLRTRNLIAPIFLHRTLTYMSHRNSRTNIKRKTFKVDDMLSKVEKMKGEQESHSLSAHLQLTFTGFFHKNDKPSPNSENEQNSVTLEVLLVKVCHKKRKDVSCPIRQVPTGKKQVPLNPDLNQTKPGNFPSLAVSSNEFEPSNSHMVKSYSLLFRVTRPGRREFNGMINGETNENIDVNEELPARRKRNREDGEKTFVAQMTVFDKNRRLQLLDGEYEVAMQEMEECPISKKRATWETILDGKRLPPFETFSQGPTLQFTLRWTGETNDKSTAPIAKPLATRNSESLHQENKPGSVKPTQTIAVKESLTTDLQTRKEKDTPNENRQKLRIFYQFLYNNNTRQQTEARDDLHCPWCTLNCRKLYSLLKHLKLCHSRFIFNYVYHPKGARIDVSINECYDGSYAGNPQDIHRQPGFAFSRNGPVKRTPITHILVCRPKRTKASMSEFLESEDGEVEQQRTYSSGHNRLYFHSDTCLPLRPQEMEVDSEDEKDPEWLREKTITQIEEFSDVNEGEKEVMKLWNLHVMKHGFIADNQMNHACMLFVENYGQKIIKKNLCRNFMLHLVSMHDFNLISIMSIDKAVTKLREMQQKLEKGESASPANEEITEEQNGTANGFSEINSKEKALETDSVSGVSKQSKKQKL
T4 sequence (Q9BYW2 whole entry): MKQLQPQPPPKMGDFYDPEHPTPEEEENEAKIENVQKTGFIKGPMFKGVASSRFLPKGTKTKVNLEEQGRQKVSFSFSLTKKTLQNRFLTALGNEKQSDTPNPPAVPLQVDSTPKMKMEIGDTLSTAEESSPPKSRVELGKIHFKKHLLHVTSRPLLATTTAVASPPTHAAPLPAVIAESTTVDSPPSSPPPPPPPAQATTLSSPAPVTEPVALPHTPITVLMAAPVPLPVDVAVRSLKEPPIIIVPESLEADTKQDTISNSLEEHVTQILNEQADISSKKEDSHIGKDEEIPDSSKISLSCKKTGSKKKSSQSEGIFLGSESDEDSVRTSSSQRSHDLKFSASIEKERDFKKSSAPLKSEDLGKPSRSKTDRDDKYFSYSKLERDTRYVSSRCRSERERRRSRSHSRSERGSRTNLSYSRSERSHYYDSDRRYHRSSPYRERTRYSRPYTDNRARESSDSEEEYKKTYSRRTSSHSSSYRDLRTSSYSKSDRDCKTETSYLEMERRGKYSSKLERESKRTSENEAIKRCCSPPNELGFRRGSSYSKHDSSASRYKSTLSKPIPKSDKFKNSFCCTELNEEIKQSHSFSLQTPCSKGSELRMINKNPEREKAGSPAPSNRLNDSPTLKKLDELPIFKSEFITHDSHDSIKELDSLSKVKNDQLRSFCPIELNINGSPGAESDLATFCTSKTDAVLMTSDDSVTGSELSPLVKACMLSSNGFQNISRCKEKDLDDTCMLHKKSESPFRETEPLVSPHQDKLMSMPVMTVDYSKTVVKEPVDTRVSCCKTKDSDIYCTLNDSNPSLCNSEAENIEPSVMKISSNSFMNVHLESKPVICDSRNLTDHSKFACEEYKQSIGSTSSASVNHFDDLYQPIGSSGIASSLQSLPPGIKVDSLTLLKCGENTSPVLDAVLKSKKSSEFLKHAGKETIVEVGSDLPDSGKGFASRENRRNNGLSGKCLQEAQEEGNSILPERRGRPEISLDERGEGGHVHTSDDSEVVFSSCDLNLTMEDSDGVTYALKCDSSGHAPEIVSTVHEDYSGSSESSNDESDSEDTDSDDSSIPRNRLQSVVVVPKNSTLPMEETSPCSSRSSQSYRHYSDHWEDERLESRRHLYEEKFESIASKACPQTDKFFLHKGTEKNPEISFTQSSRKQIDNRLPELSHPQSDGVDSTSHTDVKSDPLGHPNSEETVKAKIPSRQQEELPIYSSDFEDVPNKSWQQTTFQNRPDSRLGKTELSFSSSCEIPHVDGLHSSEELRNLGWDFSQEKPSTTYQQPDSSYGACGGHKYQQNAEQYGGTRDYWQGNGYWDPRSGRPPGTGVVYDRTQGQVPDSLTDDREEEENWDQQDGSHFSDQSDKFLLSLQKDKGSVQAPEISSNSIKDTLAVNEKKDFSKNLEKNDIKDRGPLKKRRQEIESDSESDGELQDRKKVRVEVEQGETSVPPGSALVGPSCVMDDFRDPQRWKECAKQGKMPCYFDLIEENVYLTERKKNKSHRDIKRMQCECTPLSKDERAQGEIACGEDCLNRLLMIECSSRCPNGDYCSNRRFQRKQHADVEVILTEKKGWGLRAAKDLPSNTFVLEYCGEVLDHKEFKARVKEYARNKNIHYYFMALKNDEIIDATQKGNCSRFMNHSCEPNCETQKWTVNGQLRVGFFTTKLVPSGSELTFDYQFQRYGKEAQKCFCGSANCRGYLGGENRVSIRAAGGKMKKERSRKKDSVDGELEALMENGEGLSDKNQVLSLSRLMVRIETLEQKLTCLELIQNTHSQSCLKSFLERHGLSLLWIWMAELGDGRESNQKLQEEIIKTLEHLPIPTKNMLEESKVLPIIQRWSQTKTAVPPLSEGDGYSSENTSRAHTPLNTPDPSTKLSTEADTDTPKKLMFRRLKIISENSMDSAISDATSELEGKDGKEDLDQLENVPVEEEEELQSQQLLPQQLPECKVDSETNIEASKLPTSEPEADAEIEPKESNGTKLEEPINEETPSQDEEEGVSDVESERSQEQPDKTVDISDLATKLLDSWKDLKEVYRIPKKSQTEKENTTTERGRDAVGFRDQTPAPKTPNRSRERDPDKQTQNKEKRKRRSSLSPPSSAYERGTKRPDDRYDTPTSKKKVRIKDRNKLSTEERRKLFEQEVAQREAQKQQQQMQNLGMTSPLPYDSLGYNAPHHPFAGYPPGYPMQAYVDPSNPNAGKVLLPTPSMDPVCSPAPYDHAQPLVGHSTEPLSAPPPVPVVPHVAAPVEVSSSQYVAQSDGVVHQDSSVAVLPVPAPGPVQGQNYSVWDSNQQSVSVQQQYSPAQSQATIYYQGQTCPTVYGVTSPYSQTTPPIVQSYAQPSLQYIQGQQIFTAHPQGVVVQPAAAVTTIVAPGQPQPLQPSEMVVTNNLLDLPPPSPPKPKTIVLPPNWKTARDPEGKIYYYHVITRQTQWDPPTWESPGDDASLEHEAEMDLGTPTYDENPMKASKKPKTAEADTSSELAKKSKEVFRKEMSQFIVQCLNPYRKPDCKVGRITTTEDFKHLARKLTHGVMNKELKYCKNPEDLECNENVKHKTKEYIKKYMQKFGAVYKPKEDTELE
T8 sequence (Q9NR22 whole entry): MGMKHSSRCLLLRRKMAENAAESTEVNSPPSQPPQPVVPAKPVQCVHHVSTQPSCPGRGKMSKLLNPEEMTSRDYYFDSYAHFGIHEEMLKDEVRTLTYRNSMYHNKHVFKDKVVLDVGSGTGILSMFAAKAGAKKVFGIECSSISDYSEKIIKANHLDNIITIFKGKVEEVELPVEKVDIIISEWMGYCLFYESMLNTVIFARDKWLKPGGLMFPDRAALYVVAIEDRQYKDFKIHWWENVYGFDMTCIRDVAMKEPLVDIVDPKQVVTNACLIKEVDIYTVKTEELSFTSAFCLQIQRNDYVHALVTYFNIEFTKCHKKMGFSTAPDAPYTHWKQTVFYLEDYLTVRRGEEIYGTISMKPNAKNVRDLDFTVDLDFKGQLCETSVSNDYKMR

In the case of `COc1cc(OC)cc(-c2noc(N3CCN(C)C4(CCN(c5ccccc5)CC4)C3)n2)c1` [MRK-740 -NC], the activity at 1 µM (PRMT7; 1µM compound, Exp1, Exp2) is reported as 99%, the Activity % (PRMT7; 1µM compound, Exp1, Exp2, 1 µM) is reported as 92% and the activity at 10 µM (PRMT7; 10µM compound, Exp1, Exp2) is reported as 91%. For the same compound, the Activity % (PRMT7; [2]) was 97%, the activity at 1 µM (MLL1 trimeric complex; 1µM compound, Exp1, Exp2) was 95% and the activity at 10 µM (MLL1 trimeric complex; 10µM compound, Exp1, Exp2) was 98%. For the same compound, the Activity % (MLL1 trimeric complex; [2]) was 97%, the activity at 1 µM (SUV39H1; 1µM compound, Exp1, Exp2) was 100% and the Activity % (SUV39H1; 1µM compound, Exp1, Exp2, 1 µM) was 104%. The activity at 10 µM (SUV39H1; 10µM compound, Exp1, Exp2) was 101%, the activity at 1 µM (SETD2; 1µM compound, Exp1, Exp2) was 97% and the Activity % (SETD2; 1µM compound, Exp1, Exp2, 1 µM) was 107%. It also gave an activity at 10 µM (SETD2; 10µM compound, Exp1, Exp2) of 99%, an Activity % (SETD2; [2]) of 98% and an activity at 1 µM (SETDB1; 1µM compound, Exp1, Exp2) of 104%. It also gave an activity at 10 µM (SETDB1; 10µM compound, Exp1, Exp2) of 101%, an Activity % (SETDB1; [2]) of 86% and an activity at 1 µM (PRMT1; 1µM compound, Exp1, Exp2) of 108%. It also gave an Activity % (PRMT1; 1µM compound, Exp1, Exp2, 1 µM) of 109%, an activity at 10 µM (PRMT1; 10µM compound, Exp1, Exp2) of 105% and an Activity % (PRMT1; [2]) of 98%. For the same compound, the activity at 1 µM (SETD8; 1µM compound, Exp1, Exp2) was 107%, the Activity % (SETD8; 1µM compound, Exp1, Exp2, 1 µM) was 95% and the activity at 10 µM (SETD8; 10µM compound, Exp1, Exp2) was 94%. For the same compound, the Activity % (SETD8; [2]) was 92%, the activity at 1 µM (PRMT8; Exp1, Exp2) was 97% and the Activity % (PRMT8) was 104%. The activity at 10 µM (PRMT8; Exp1, Exp2) was 98%, the activity at 1 µM ([1]; 1µM compound, Exp1, Exp2) was 99% and the Activity % ([1]; 1µM compound, Exp1, Exp2, 1 µM) was 112%. The activity at 10 µM ([1]; 10µM compound, Exp1, Exp2) was 100% and the Activity % [1, 2] was 95%.
`COc1cc(OC)cc(-c2noc(N3CCN(C)C4(CCN(c5ccnc(C)c5)CC4)C3)n2)c1` [MRK-740] gave an Activity % (PRMT7; 1µM compound, Exp1, Exp2, 1 µM) of 90%, an activity at 1 µM (PRMT7; [3]) of 92% and an Activity % (PRMT7; [2]) of 87%. For the same compound, the activity at 10 µM (PRMT7; [4]) was 89%, the Activity % (MLL1 trimeric complex; 1µM compound, Exp1, Exp2, 1 µM) was 90% and the activity at 1 µM (MLL1 trimeric complex; [3]) was 96%. For the same compound, the Activity % (MLL1 trimeric complex; [2]) was 90%, the activity at 10 µM (MLL1 trimeric complex; [4]) was 94% and the Activity % (SUV39H1; 1µM compound, Exp1, Exp2, 1 µM) was 85%. For the same compound, the activity at 1 µM (SUV39H1; [3]) was 84%, the Activity % (SUV39H1; [2]) was 80% and the activity at 10 µM (SUV39H1; [4]) was 84%. It also gave an Activity % (SETD2; 1µM compound, Exp1, Exp2, 1 µM) of 96%, an activity at 1 µM (SETD2; [3]) of 97% and an Activity % (SETD2; [2]) of 86%. The activity at 10 µM (SETD2; [4]) was 90%, the Activity % (SETDB1; 1µM compound, Exp1, Exp2, 1 µM) was 84% and the activity at 1 µM (SETDB1; [3]) was 81%. The Activity % (SETDB1; [2]) was 96%, the activity at 10 µM (SETDB1; [4]) was 86% and the Activity % (PRMT1; 1µM compound, Exp1, Exp2, 1 µM) was 96%. For the same compound, the activity at 1 µM (PRMT1; [3]) was 94%, the Activity % (PRMT1; [2]) was 89% and the activity at 10 µM (PRMT1; [4]) was 91%. It also gave an activity at 1 µM (SETD8; [3]) of 99%, an activity at 10 µM (SETD8; [4]) of 101% and an Activity % (PRMT8) of 95%. It also gave an activity at 1 µM (PRMT8; [5]) of 104%, an activity at 10 µM (PRMT8; [5]) of 105% and an Activity % ([1]; 1µM compound, Exp1, Exp2, 1 µM) of 104%. The activity at 1 µM [1, 3] was 102%, the Activity % [1, 2] was 103% and the activity at 10 µM [1, 4] was 102%.
